Measurements published in patent US20240358672A1, “APPLICATION OF GENISTEIN AND ITS PHOSPHATE ESTER DERIVATIVE AND PHARMACEUTICAL COMPOSITION COMPRISING THE SAME” (National Taiwan University, priority 2023, published 2024).

System: hiPSC-ECs
Assay: Wash-out experiments, inflammation-related gene expression in hiPSC-ECs
Settings: 5 μM Δ^9-THC 48 hours, then fresh medium

`CCCCCc1cc(O)c2c(c1)OC(C)(C)[C@@H]1CCC(C)=C[C@@H]21` [Δ^9-THC, Δ^9-tetrahydrocannabinol] was tested, and the “time the induced expression of proinflammatory cytokines and chemokines was sustained (recovery time)” value was 8 to 10 days.
